Assay results taken from patent publication US20250304560A1, “MODULATORS OF NLRP3 INFLAMMASOME AND RELATED PRODUCTS AND METHODS” (Neumora Therapeutics, Inc., priority 2022, published 2025).
Where two headings read alike, the source gives them in different places.

How the values were obtained:
IL-6 = IL-6 AlphaLISA in LPS-primed THP1 macrophages
hERG channels = molecular target: T1, hERG channels (Homo sapiens, UniProt Q12809); test: hERG assay, whole-cell patch-clamp in CHO-hERG cells; format: cell-based; conditions: for IC50: whole-cell patch-clamp, CHO-hERG cells
T1 construct: host or cells: CHO-hERG cells
Procedure: CHO-hERG cells (Sophion Biosciences (Ballerup, Denmark), subcultured and frozen in WuXi AppTec (Suzhou) Co., Ltd.), stored in liquid nitrogen, were tested and determined to be free from mycoplasma contamination. Cells were not used after the 30th passage. CHO-hERG cells were cultured in a humidified incubator of 5% CO2 (4% to 8%) in air at 37° C. (±2° C.). The cells were recovered with recovery medium (F12 medium with 10% fetal bovine serum), subcultured in complete medium (F12 medium, supplemented with 10% fetal bovine serum, 1% Geneticin® selective antibiotic (G418), 89 μg/mL Hygromycin B (HB)), and the culture medium was switched to recovery medium in the last subculture before patch-clamp experiment.
To determine the compounds' IC50, select compounds (“test articles”) were dissolved into DMSO, and then diluted with ECS to get working solutions. Five concentrations of 0.3, 1, 3, 10, and 30 μM were tested. Two replicate cells for each concentration were tested.
Exponentially growing CHO-hERG cells were collected and suspended in extracellular solution for use. The hERG current was recorded at physiological temperature (33.0° C. to 37.0° C.) using whole-cell patch-clamp techniques. Output signals from the patch-clamp amplifier were digitized and low-pass filtered at 2.9 KHz. The recording was controlled with Patchmaster Pro software. The recording chamber with seeded cells was mounted on an inverted microscope stage. A cell in the recording chamber was randomly selected for testing. The cell was continuously perfused from the perfusion system. A micropipette filled with ICS was used as recording electrode in the manual patch-clamp study. The micropipette was prepared on the day of the patch-clamp experiment using glass capillaries (BF150-117-10, SUTTER INSTRUMENT USA). The pipette resistance (Rp) was within 2 to 5 MΩ with ICS filled. From the holding potential of-80 mV, the voltage was increased to +60 mV for 850 ms to open the hERG channels. After that, the voltage was decreased to-50 mV for 1275 ms, causing a “rebound” or tail current, the peak tail current was measured and collected for data analysis. Finally, the voltage was decreased to the holding potential (−80 mV). This command voltage protocol was repeated every 15 s continuously during the test article application.
During the initial recording period with vehicle control working solution, the peak tail current amplitude was monitored until it had been stable for at least 3 sweeps. Cells were then perfused with test article/positive control working solutions until the peak tail current amplitude reached steady state. Steady state was considered reached when three consecutive super-imposable peak tail currents were collected. At this point, cells were once again perfused with next concentration of test article. One or more test articles/positive control or different concentrations of the same test article were tested on each cell with vehicle control washout until the current amplitude returned to values at least 80% of those measured before application of test article. […] At least 2 replicate cells for each concentration were tested. […] (Milnes, J. T., et al.)
Seal criteria: When acquiring whole-cell configuration, a holding potential (e.g.,-80 mV) was applied while membrane parameters were collected (Cm, Rm and Rs). A “good” whole-cell recording was generally defined as: series resistance (Rs) was less than 10 MΩ; membrane resistance (Rm) was more than 500 MΩ and membrane capacitance (Cm) was less than 100 pF. Current amplitude: The peak current amplitude must be between 400 pA and 5000 pA before the test article/positive control application; otherwise the cell was discarded. Leak criteria: At-80 mV holding potential, the absolute leak current value must be less than 200 pA. The amplitude of current was adjusted with leak current at-80 mV. The sweeps which absolute leak current value was more than 200 pA was not used in data analysis.

NLRP3 inflammasome = NLRP3 inflammasome (Homo sapiens, UniProt Q96P20); test: NLRP3 inflammasome activation in THP1 macrophages, IL-1β AlphaLISA
[1] = Homo sapiens, THP-1, read-out: IL-6 Activity (μM)
[2] = Homo sapiens, THP-1, read-out: IL-6 Activity, LPS-primed THP1 macrophages, Table 11 comparison
[3] = Homo sapiens, THP-1, read-out: IL-6 Activity (μM), THP1 macrophages, PMA, LPS priming, nigericin 6.7 uM
[4] = IL-1β Activity (nM), THP1 macrophages, PMA, LPS priming, nigericin 6.7 uM activation
[5] = IL-1β Activity, THP1 macrophages, Table 11 comparison

Sequence of NLRP3 inflammasome (Q96P20 whole entry): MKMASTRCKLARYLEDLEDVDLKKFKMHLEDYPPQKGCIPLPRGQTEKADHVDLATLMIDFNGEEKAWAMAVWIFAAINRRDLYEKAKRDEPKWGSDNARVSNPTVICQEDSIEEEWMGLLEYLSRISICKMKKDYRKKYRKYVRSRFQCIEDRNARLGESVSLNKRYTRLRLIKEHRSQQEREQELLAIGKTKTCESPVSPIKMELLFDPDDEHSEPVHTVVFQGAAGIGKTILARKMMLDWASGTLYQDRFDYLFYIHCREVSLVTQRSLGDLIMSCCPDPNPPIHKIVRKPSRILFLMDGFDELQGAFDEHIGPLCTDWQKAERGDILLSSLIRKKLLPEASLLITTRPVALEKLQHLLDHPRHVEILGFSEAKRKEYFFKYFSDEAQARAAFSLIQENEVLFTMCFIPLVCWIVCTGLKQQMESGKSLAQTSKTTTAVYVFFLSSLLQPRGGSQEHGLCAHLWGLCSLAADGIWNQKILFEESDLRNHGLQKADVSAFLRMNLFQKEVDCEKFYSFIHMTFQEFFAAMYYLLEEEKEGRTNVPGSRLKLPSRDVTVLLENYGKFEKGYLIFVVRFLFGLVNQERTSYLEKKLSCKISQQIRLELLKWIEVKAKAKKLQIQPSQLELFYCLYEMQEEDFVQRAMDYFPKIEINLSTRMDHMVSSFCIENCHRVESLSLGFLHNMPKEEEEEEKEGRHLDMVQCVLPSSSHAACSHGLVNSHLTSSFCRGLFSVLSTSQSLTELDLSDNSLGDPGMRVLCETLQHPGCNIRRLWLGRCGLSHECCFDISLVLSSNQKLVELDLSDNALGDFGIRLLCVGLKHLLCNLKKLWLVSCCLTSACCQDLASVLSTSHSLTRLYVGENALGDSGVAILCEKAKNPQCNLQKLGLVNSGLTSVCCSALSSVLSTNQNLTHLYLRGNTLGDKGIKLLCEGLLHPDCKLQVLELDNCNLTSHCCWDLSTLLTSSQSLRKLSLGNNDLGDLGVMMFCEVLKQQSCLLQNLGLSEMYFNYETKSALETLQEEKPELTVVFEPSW
T1 sequence (Q12809 whole entry): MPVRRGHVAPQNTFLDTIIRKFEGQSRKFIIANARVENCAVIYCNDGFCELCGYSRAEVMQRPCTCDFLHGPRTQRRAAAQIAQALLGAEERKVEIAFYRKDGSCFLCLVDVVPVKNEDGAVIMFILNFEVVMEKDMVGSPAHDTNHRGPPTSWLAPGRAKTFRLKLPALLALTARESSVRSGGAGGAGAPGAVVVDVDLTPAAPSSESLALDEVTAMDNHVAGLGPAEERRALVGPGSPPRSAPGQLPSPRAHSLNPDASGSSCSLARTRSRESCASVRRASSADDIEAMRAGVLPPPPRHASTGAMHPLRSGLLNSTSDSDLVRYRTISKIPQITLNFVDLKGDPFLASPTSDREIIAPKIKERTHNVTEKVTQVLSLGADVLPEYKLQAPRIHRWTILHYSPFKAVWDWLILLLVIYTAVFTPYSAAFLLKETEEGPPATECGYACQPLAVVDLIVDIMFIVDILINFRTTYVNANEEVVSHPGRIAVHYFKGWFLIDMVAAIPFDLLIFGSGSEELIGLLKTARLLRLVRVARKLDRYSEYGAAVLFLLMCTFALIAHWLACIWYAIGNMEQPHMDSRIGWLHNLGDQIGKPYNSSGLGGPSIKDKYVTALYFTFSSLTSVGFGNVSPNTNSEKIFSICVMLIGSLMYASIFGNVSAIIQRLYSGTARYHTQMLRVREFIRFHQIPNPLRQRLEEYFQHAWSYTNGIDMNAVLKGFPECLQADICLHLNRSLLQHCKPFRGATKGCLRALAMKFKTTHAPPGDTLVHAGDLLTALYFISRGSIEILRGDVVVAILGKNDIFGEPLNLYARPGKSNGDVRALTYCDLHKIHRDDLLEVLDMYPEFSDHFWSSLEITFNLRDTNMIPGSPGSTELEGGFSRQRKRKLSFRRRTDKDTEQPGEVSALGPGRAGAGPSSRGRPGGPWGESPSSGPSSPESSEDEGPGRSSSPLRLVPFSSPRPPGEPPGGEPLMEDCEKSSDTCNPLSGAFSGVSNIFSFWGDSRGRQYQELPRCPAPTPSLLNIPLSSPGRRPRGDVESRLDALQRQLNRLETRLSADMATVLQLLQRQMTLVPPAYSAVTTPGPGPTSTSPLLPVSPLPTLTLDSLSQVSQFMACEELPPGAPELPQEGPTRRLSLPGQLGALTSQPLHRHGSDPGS

| SMILES | IC50 (hERG channels; 33.0-37.0 °C, Table 10) | hERG inhibition (in words) (hERG channels) | IC50 (hERG channels; Table 11 comparison) | IC50 (IL-6; [3]) | IC50 (NLRP3 inflammasome; [4]) | other results |
| --- | --- | --- | --- | --- | --- | --- |
| Cc1cc(O[C@@H]2CCCN(C)C2)nnc1-c1ccc(F)cc1O [compound 34] | > 30 µM |  |  |  |  | IC50 (IL-6; [1]): > 10 µM; IC50 (NLRP3 inflammasome): 10 to 100 nM |
| Cc1cc(N[C@@H]2CCCN(C)C2)nnc1-c1ccc(Cl)cc1O [D, reference compound] |  | high | 3 to 10 µM |  |  | IC50 (IL-6; [2]): > 10 µM; IL-1ß activity (in words) (NLRP3 inflammasome): potent |
| Cc1cc(N[C@@H]2CCCN(C)C2)nnc1-c1ccccc1O [compound 2, 2-[4-methyl-6-[[(3R)-1-methyl-3-piperidyl]amino]pyridazin-3-yl]phenol] | > 30 µM | unexpectedly low | > 30 µM | 5 to 10 µM | 1 to 10 nM | IL-6 activity (in words) (IL-6): potent; IC50 (IL-6; [2]): 5 to 10 µM; IL-1ß activity (in words) (NLRP3 inflammasome): potent; IC50 (NLRP3 inflammasome; [5]): 1 to 10 nM |
| Cc1cc(N[C@@H]2CCCN(C)C2)nnc1-c1ccc(C#N)cc1O [compound 51] | > 30 µM | unexpectedly low | > 30 µM | 5 to 10 µM | < 1 nM | IL-6 activity (in words) (IL-6): potent; IC50 (IL-6; [2]): 5 to 10 µM; IL-1ß activity (in words) (NLRP3 inflammasome): potent; IC50 (NLRP3 inflammasome; [5]): < 1 nM |
| Cc1cccc(O)c1-c1ccc(N[C@@H]2CCCN(C)C2)nn1 [compound 7] | > 30 µM |  |  | 1 to 5 µM | 1 to 10 nM |  |
| Cc1cc(N[C@@H]2CCCN(C)C2)nnc1-c1ccc(C(F)(F)F)cc1O [A, reference compound] |  | high | ≤ 1 µM |  |  | IC50 (IL-6; [2]): > 10 µM |
| Cc1ccc(-c2nnc(N[C@@H]3CCCN(C)C3)cc2C)c(O)c1 [C, reference compound] |  | high | 10 to 20 µM |  |  | IC50 (IL-6; [2]): > 10 µM; IL-1ß activity (in words) (NLRP3 inflammasome): potent; IC50 (NLRP3 inflammasome; [5]): < 1 nM |
| CCc1ccc(-c2nnc(N[C@@H]3CCCN(C)C3)cc2C)c(O)c1 [compound 15] | 3 to 10 µM | high | 3 to 10 µM |  | < 1 nM | IL-1ß activity (in words) (NLRP3 inflammasome): potent; IC50 (NLRP3 inflammasome; [5]): < 1 nM |
| Cc1cc(N[C@@H]2CCCN(C)C2)nnc1-c1cccc(C)c1O [compound 67] | 10 to 20 µM |  |  | 5 to 10 µM | < 1 nM |  |
| Cc1cc(N[C@@H]2CCCN(C)C2)nnc1-c1ccc(C2CC2)cc1O [compound 3] | 3 to 10 µM | high | 3 to 10 µM | 5 to 10 µM |  | IC50 (IL-6; [2]): 5 to 10 µM |
| Cc1cc(N[C@@H]2CCCN(C)C2)nnc1-c1ccc(OC(F)(F)F)cc1O [B, reference compound] |  | high | 1 to 3 µM |  |  | IC50 (IL-6; [2]): > 10 µM; IL-1ß activity (in words) (NLRP3 inflammasome): potent |
| Cc1cc(-c2cc(C)c(N[C@@H]3CCCN(C)C3)nn2)c(O)cc1F [compound 79] |  |  |  | < 1 µM | 100 to 500 nM |  |
| Cc1cc(N[C@@H]2CCCN(C)C2)nnc1-c1ccc(F)c(C)c1O [compound 38] |  |  |  |  | 1 to 10 nM | IC50 (IL-6; read-out: IL-6 Activity, THP1 macrophages, PMA, LPS priming, nigericin 6.7 uM): 1 to 5 µM |
| Cc1cc(N[C@@H]2CCCN(C)C2)nnc1-c1ccc(F)cc1O [compound 1] | 20 to 30 µM |  |  | < 1 µM | 1 to 10 nM |  |
| Cc1cc(-c2nnc(N[C@@H]3CCCN(C)C3)cc2C)c(O)cc1C(F)(F)F [compound 76] |  |  |  | 5 to 10 µM | 1 to 10 nM |  |
| CCc1cc(C)c(-c2ccc(N[C@@H]3CCCN(C)C3)nn2)c(O)c1 [compound 12] |  |  |  | > 10 µM | < 1 nM |  |
| Cc1cc(N[C@H]2CN(C)CC[C@H]2F)nnc1-c1ccc(F)cc1O [compound 49] |  |  |  | > 10 µM | 10 to 100 nM |  |
| Cc1cc(C[C@H]2CCCN(C)C2)nnc1-c1ccccc1O [compound 105] |  |  |  |  |  | IC50 (IL-6; [1]): > 10 µM; IC50 (NLRP3 inflammasome): > 1000 nM |
| Cc1cccc(O)c1-c1ccc(N(C)[C@@H]2CCCN(C)C2)nn1 [compound 21, (R)-3-methyl-2-(6-(methyl (1-methylpiperidin-3-yl)amino)pyridazin-3-yl) phenol] | > 30 µM | unexpectedly low | > 30 µM | 5 to 10 µM | 10 to 100 nM | IL-6 activity (in words) (IL-6): potent; IC50 (IL-6; [2]): 5 to 10 µM; IL-1ß activity (in words) (NLRP3 inflammasome): potent; IC50 (NLRP3 inflammasome; [5]): 10 to 100 nM |
| Cc1cc(F)cc(O)c1-c1ccc(N[C@@H]2CCCN(C)C2)nn1 [compound 6] |  |  |  | 5 to 10 µM | < 1 nM |  |
| Cc1cc(N[C@H]2CN(C)CC[C@H]2F)nnc1-c1ccccc1O [compound 50] |  |  |  | > 10 µM | 10 to 100 nM |  |
| CN1CC[C@@H](Nc2ccc(-c3ccc(F)cc3O)nn2)C1 [compound 30] |  |  |  | > 10 µM | > 1000 nM |  |
| Cc1cc(N[C@H]2CN(C)CC(F)(F)C2)nnc1-c1ccc(F)cc1O [compound 45] |  |  |  | > 10 µM | 100 to 500 nM |  |
| Cc1cc(N(C)[C@@H]2CCCN(C)C2)nnc1-c1ccc(C2CC2)cc1O [compound 28] |  |  |  |  |  | IC50 (IL-6; [1]): < 1 µM; IC50 (NLRP3 inflammasome): < 1 nM |
| CN1CCC[C@@H](N(C)c2ccc(-c3ccc(F)cc3O)nn2)C1 [compound 20] |  |  |  | 5 to 10 µM | > 1000 nM |  |
| CCc1ccc(-c2ccc(N(C)[C@@H]3CCCN(C)C3)nn2)c(O)c1 [compound 27] |  |  |  | > 10 µM | 10 to 100 nM |  |
| Cc1cc(-c2ccc(F)cc2O)nnc1N[C@@H]1CCCN(CCF)C1 [compound 86] |  |  |  | > 10 µM | 500 to 1000 nM |  |
| Cc1cc(NC[C@H]2CCCO2)nnc1-c1ccccc1O [compound 116] |  |  |  |  |  | IC50 (IL-6; [1]): > 10 µM; IC50 (NLRP3 inflammasome): > 1000 nM |
| Cc1cccc(-c2ccc(N(C)[C@@H]3CCCN(C)C3)nn2)c1O [compound 18] |  |  |  | 5 to 10 µM | > 1000 nM |  |
| CN1CC[C@@H](Nc2ccc(-c3ccccc3O)nn2)C1 [compound 31] |  |  |  | > 10 µM | > 1000 nM |  |
